Reference: patent publication US8853230B2, “Inhibitors of JAK” (Portola Pharmaceuticals, Inc., priority 2009, dated 2014)

Key:
[1] = system: IL4-induced phospho STAT6 formation in Ramos B lymphocytes; assay: Inhibition of IL4-induced phospho STAT6 formation in Ramos B lymphocytes (flow cytometry); type: cell-based, human; conditions: Homo sapiens; for inhibition at 0.2 µM: 200 nM compound, read-out: % Inhibition of IL-4 Induced STAT6 Phosphorylation 200 nM; for inhibition at 1 µM: 1 μM compound, read-out: % Inhibition of IL-4 Induced STAT6 Phosphorylation 1 μM
Method in brief: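 Read-out: phospho-STAT6 (Y641) mean fluorescent intensity by intracellular flow cytometry, expressed as inhibition of the IL4-induced signal. Ramos B lymphocytes were given compound for 1 h at 37°C, then 1 ng/ml IL4 for 10 min, before fixation and methanol permeabilization.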

JAK3 = target: T1, JAK3 (Homo sapiens, UniProt P52333); assay: Z'-LYTE kinase assay, JAK3 tyrosine phosphorylation activity; type: biochemical
T1 construct: 5 μl of catalytic domain recombinant Kinase enzyme+Tyr peptide substrate (Invitrogen, Calif.); purchased Invitrogen
T1 sequence (P52333 822-1111 limits assumed): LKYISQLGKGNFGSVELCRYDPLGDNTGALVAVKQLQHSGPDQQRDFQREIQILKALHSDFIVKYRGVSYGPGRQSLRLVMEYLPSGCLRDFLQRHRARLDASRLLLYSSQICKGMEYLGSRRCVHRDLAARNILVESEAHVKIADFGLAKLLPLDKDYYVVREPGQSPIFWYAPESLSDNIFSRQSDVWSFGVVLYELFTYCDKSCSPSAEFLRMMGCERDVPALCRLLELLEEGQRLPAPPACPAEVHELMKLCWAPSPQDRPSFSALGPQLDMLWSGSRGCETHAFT
Method in brief: (§1)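 Catalytic-domain recombinant enzymes phosphorylate a coumarin/fluorescein-labelled Tyr6 peptide for 1 h at room temperature in the presence of ATP and compound (1% DMSO). Development Reagent then cleaves non-phosphorylated peptide over 1 h, and emission ratio 445/520 nm (ex 400 nm) gives percent phosphorylation; IC50 by 4-parameter logistic model.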

JAK1 = target: T2, JAK1 (Homo sapiens, UniProt P23458); assay: Z'-LYTE kinase assay, JAK1 tyrosine phosphorylation activity; type: biochemical; conditions: read-out: JAK 1 IC50
T2 construct: 5 μl of catalytic domain recombinant Kinase enzyme+Tyr peptide substrate (Invitrogen, Calif.); purchased Invitrogen
T2 sequence (P23458 875-1153 limits assumed): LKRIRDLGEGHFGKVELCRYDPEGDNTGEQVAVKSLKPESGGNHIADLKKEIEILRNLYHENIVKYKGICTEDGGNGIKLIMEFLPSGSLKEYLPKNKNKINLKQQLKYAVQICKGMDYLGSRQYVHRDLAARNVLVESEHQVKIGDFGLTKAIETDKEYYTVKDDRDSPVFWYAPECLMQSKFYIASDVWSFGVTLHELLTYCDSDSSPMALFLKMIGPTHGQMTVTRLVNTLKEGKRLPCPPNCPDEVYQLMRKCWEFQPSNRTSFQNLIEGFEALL
Method in brief: as §1

JAK2 = target: T3, JAK2 (Homo sapiens, UniProt O60674); assay: Z'-LYTE kinase assay, JAK2 tyrosine phosphorylation activity; type: biochemical
T3 construct: 5 μl of catalytic domain recombinant Kinase enzyme+Tyr peptide substrate (Invitrogen, Calif.); purchased Invitrogen
T3 sequence (O60674 849-1124 limits assumed): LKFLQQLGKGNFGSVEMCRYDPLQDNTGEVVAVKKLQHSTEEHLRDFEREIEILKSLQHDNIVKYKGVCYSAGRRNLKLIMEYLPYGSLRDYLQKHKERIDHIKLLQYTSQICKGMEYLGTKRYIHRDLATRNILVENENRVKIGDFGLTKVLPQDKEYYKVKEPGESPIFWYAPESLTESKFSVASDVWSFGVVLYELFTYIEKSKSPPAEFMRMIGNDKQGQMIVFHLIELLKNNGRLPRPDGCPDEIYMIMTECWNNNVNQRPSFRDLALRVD
Method in brief: as §1

Syk [2] = target: T4, Syk (Homo sapiens, UniProt P43405); assay: Syk IC50 (Table 1; method not given); type: biochemical
TYK2 = target: T5, TYK2 (Homo sapiens, UniProt P29597); assay: Z'-LYTE kinase assay, TYK2 tyrosine phosphorylation activity; type: biochemical
T5 construct: 5 μl of catalytic domain recombinant Kinase enzyme+Tyr peptide substrate (Invitrogen, Calif.); purchased Invitrogen
T5 sequence (P29597 897-1176 limits assumed): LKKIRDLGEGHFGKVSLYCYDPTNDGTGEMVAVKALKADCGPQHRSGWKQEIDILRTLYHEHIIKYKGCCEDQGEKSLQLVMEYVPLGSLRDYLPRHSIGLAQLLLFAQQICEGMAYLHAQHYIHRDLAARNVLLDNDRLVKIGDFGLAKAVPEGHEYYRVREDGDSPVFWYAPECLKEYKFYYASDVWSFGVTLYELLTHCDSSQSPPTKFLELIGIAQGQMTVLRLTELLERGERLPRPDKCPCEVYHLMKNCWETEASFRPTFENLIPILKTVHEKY
Method in brief: as §1

Syk [3] = target: T4, Syk; assay: Syk kinase inhibition (Syk IC50 of Table 1); type: biochemical

| SMILES | inhibition at 0.2 µM [1] [%] | inhibition at 1 µM [1] [%] | IC50 (JAK3) [nM] | IC50 (JAK1) [nM] | IC50 (JAK2) [nM] | IC50 (Syk [2]) [nM] | IC50 (TYK2) [nM] | IC50 (Syk [3]) [nM] |
| --- | --- | --- | --- | --- | --- | --- | --- | --- |
| NC(=O)c1cnc(Nc2ccc(Cl)c(NC(=O)N3CCCC3)c2)nc1NCc1ccccc1 [Example 130, 4-(benzylamino)-2-(4-chloro-3-(pyrrolidine-1-carboxamido)phenylamino)pyrimidine-5-carboxamide] | 0.7 | 19 | 1 to 10 | 100 to 1000 | 100 to 1000 | > 1000 | 10 to 100 | – |
| CNC(=O)Nc1cc(Nc2ncc(C(N)=O)c(NCc3ccccc3)n2)ccc1Cl [Example 131, 4-(benzylamino)-2-(4-chloro-3-(3-methylureido)phenylamino)pyrimidine-5-carboxamide] | 0.3 | 4.3 | 1 to 10 | > 1000 | 100 to 1000 | > 1000 | 10 to 100 | – |
| CN(C)[C@@H]1CCN(C(=O)Nc2cccc(Nc3cc(N[C@H](CO)c4ccccc4)c(C(N)=O)cn3)c2)C1 [Example 312, 6-(3-((R)-3-(dimethylamino)pyrrolidine-1-carboxamido)phenylamino)-4-((S)-2-hydroxy-1-phenylethylamino)nicotinamide] | – | – | 1 to 10 | > 1000 | 100 to 1000 | – | – | > 1000 |
| CC(=O)Nc1cccc(Nc2cc(NCc3ccccc3F)c(C(N)=O)cn2)c1 [Example 340, 6-(3-acetamidophenylamino)-4-(2-fluorobenzylamino)nicotinamide] | – | – | 10 to 100 | 100 to 1000 | 100 to 1000 | – | – | > 1000 |
